In BindingDB's records for patent US20250059185 (Hoffmann-La Roche, 2025) one finds IC50 data, which are given here for 1 compound.

For the assay, the target named is T1, Monoglyceride lipase (Homo sapiens, UniProt Q99685).
T1 sequence (Q99685 whole entry): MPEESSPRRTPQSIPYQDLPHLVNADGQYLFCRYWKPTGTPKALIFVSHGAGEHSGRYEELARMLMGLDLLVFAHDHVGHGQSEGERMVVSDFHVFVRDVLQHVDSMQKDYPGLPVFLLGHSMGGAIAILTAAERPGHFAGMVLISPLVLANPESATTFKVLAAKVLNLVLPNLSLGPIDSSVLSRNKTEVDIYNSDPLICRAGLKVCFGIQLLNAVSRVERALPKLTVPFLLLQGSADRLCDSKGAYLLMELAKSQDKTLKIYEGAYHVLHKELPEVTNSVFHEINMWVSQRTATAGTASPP
The experiment in a line: MAGL Inhibitory Activity Assay. As for the experimental part: MAGL inhibitory activity by determining the enzymatic activity by following the hydrolysis of the natural substrate 2-arachidonoylglycerol (2-AG) resulting in arachidonic acid, which can be followed by mass spectrometry. This assay is hereinafter abbreviated “2-AG assay”. The 2-AG assay was carried out in 384 well polypropylene assay plates. Compound dilutions were made in 100% DMSO in a polypropylene plate in 3-fold dilution steps to give a final concentration range in the assay from 12.5 μM to 0.8 pM. Compound dilutions were added to MAGL protein in assay buffer (50 mM TRIS, 1 mM EDTA, 0.01% (v/v) Tween-20, 2.5% (v/v) DMSO). After shaking, the plate was incubated for 15 min at RT. To start the reaction, 2-arachidonoylglycerol in assay buffer was added. The final concentrations in the assay was 50 pM for MAGL protein and […] 2-arachidonoylglyerol. After shaking and 30 min incubation at RT, the reaction was quenched by the addition of two assay volumes of acetonitrile containing 4 μM of d8-arachidonic acid. The amount of arachidonic acid formed was traced by an online SPE system (Agilent Rapidfire) coupled to a triple quadrupole mass spectrometer.

`COc1cccc(C(=O)N2CCc3c(nn(C)c3-c3cc(Cl)cc(CC(N)=O)c3)[C@H]2C)c1Cl` [US20250059185, Example 15] had an IC50 of 0.152 µM.

As usually defined, the IC50 is the concentration that inhibits the measured activity by half. A higher IC50 goes with weaker potency.
